Each structure is given as a SMILES string. Where a name gives a salt, the structure may show the parent alone. Read-outs that look alike come from different tables or passages of the source.

This passage reports IC50 results from patent US10189845B2, “4,6-substituted-pyrazolo[1,5-a]pyrazines as janus kinase inhibitors” (ARRAY BIOPHARMA INC., priority 2014, dated 2019).

Common to all, as to assay type: biochemical
The target in one assay is Human Tyk2 kinase domain (Homo sapiens (Human), UniProt P29597). As to the kind of experiment: Tyk2 Inhibition Assay (Example A, Omnia kinase fluorescence peptide substrate assay). To be noted: TYK2 Enzyme IC50 1 mM ATP, averaged IC50 ranges. In short, it runs like this: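 Omnia Sox-peptide kinetic fluorescence assay (ex 360/em 485 nm, read every 50 s for 45 min) with 1 nM human Tyk2 kinase domain (aa 886–1187, His tag cleaved, baculovirus-expressed), 1 mM ATP, 8 μM Omnia Y12 peptide, in 25 mM HEPES pH 7.4, 10 mM MgCl2, 0.01% Triton X-100, 1 mM DTT, 2% DMSO. IC50 from 4-parameter logistic fit of percent of control.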
Chain of Human Tyk2 kinase domain (P29597 886-1187): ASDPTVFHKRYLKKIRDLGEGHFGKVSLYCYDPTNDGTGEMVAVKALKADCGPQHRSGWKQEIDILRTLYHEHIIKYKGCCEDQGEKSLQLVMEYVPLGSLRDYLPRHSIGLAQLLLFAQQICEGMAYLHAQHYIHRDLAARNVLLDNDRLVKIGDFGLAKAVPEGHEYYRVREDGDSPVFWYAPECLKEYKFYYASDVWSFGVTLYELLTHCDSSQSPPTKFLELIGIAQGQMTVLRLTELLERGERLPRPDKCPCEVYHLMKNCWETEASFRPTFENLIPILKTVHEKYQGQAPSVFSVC

In a further assay the target is JAK1 (Homo sapiens (Human), UniProt P23458). As to the kind of experiment: JAK1 Inhibition Assay (Example B, Omnia kinase fluorescence peptide substrate assay). The gist of the method:
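Recombinant human JAK1 (12.5 nM) with 1 mM ATP and 8 μM Omnia Y12 Sox-peptide in 25 mM HEPES pH 7.4, 10 mM MgCl2, 0.01% Triton X-100, 1 mM DTT, 2% DMSO final. Phosphorylation read kinetically (ex 360/em 485 nm, 45 min); IC50 from 4-parameter fit of percent of control.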

Another assay addresses JAK2 (Homo sapiens (Human), UniProt O60674). The experiment in a line: JAK2 Inhibition Assay (Example C, Omnia kinase fluorescence peptide substrate assay). To be noted: JAK2 Enzyme IC50 1 mM ATP, averaged IC50 ranges. In short, it runs like this: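 4 nM JAK2 with 1 mM ATP and 10 μM Omnia Y7 peptide in 25 mM HEPES pH 7.4, 10 mM MgCl2, 0.01% Triton X-100, 1 mM DTT, 2% DMSO. Sox fluorescence (ex 360/em 485 nm) read every 50 s for 45 min; IC50 from 4-parameter fit of percent of control.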

The target in a further assay is JAK3 (Homo sapiens (Human), UniProt P52333). As to the kind of experiment: JAK3 Inhibition Assay (Example D, Omnia kinase fluorescence peptide substrate assay). The gist of the method:
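Mixture held 2 nM JAK3, 1 mM ATP and 10 μM Omnia Y7 peptide in 25 mM HEPES pH 7.4, 10 mM MgCl2, 0.01% Triton X-100, 1 mM DTT, 2% DMSO final. Sox fluorescence (ex 360/em 485 nm) was read every 50 s for 45 min. IC50 came from a 4-parameter logistic fit of percent of control.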

Where [1] appears, read: JAK1 Enzyme IC50 1 mM ATP, 1 mM ATP, averaged IC50 ranges.

Chain of JAK1 (P23458 whole entry): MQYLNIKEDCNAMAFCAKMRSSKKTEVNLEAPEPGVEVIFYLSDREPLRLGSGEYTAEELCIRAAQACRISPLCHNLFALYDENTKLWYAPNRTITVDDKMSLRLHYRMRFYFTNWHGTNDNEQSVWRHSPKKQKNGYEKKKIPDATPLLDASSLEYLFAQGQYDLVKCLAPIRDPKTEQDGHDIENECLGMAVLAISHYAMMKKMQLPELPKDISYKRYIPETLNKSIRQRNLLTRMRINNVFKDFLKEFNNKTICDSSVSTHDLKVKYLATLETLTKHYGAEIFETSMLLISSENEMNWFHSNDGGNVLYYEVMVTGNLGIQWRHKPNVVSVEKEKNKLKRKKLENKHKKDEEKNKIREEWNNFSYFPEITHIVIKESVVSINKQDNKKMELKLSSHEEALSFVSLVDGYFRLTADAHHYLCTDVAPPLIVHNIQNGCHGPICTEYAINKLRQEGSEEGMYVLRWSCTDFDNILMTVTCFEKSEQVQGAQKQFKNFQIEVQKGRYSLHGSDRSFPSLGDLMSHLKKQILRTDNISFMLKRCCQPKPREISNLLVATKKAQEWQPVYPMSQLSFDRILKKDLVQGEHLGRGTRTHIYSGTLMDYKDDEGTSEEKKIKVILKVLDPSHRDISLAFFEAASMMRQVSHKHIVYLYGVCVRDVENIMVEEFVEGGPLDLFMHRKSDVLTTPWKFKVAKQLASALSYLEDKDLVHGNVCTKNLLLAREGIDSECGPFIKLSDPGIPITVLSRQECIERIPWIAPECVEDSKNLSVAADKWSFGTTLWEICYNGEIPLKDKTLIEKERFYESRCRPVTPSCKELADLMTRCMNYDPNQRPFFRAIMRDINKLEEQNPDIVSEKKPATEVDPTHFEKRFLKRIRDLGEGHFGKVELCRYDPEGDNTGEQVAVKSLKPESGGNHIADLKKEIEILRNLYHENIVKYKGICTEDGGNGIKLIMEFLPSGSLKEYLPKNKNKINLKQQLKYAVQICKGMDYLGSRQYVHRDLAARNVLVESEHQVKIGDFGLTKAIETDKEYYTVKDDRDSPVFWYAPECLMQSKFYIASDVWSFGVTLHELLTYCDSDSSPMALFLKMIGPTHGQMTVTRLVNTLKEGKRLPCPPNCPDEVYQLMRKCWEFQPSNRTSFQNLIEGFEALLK
Chain of JAK2 (O60674 whole entry): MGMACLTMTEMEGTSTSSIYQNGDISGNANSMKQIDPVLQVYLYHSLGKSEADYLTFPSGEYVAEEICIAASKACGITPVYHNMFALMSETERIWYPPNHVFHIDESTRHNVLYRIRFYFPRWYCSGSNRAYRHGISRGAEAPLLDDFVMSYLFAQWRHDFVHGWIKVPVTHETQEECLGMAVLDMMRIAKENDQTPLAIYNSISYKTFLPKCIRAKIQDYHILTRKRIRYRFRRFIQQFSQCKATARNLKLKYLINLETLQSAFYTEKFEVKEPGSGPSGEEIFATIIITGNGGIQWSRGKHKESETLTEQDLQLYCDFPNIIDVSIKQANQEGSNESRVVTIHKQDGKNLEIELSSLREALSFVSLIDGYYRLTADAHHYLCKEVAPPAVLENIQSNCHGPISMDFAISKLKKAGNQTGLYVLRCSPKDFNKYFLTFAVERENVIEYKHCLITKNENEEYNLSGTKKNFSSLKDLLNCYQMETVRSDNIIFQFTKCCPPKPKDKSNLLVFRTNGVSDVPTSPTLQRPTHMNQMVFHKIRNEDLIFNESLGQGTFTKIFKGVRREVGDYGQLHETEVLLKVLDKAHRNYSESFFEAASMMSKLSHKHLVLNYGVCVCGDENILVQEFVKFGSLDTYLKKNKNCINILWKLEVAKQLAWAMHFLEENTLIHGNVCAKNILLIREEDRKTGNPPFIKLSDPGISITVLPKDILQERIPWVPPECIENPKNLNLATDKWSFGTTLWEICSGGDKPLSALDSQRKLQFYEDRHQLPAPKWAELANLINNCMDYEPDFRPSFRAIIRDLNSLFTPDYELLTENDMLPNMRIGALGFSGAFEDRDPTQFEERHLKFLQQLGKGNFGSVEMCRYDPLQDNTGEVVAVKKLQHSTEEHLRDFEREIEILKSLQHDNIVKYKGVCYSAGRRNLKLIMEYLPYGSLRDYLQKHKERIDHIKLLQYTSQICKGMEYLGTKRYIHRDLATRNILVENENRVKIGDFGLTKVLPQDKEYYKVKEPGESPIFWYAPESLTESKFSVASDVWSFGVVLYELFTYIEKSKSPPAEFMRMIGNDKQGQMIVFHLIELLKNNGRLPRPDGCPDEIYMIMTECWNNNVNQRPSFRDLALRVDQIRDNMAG
Chain of JAK3 (P52333 whole entry): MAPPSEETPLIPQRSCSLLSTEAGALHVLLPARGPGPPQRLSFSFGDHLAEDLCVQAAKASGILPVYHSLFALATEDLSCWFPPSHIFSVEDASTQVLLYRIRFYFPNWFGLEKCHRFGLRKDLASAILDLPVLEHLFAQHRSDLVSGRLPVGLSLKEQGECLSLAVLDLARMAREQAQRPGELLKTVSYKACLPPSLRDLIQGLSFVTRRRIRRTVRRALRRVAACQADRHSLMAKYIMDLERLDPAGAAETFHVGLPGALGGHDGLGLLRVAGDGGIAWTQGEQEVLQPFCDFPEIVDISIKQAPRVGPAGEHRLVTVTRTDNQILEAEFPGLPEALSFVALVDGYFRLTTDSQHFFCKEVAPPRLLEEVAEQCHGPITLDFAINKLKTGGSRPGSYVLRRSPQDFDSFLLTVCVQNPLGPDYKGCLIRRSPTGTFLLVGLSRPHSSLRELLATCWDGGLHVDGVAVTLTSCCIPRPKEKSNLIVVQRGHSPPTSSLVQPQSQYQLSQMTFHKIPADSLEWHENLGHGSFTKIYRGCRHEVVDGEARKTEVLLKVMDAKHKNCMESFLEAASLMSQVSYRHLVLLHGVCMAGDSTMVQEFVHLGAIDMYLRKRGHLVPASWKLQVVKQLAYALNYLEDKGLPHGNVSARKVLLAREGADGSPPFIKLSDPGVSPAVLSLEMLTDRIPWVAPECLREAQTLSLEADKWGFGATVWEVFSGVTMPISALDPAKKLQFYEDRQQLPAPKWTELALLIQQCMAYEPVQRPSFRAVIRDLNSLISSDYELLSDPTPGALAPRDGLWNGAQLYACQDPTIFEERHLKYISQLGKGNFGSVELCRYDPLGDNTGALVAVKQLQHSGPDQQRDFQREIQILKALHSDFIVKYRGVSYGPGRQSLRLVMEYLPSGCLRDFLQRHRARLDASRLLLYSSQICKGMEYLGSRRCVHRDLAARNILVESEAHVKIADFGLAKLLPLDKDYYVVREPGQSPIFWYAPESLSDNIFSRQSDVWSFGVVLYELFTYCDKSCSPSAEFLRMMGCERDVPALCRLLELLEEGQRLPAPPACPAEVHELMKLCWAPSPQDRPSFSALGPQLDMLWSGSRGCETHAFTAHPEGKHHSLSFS

For the compound `CCC(CC)n1cc(-c2nc(-c3cnn(CC4(O)CCNCC4)c3)cn3nccc23)cn1` [Example 184, 4-((4-(4-(1-(pentan-3-yl)-1H-pyrazol-4-yl)pyrazolo[1,5-a]pyrazin-6-yl)-1H-pyrazol-1-yl)methyl)piperidin-4-ol], the IC50 – broadly, the concentration at which inhibition is half-maximal – against Human Tyk2 kinase domain was in the range of 100 to 1000 nM; against JAK1 (setting [1]), 1000 to 10000 nM; on JAK2 it was 100 to 1000 nM; at JAK3, 1000 to 10000 nM.

On to `CCC(CC)n1cc(-c2nc(-c3cnn(CC4(O)CCN(C(C)=O)CC4)c3)cn3nccc23)cn1` [Example 185, 1-(4-hydroxy-4-((4-(4-(1-(pentan-3-yl)-1H-pyrazol-4-yl)pyrazolo[1,5-a]pyrazin-6-yl)-1H-pyrazol-1-yl)methyl)piperidin-1-yl)ethanone], for which the IC50 is 100 to 1000 nM on Human Tyk2 kinase domain, 100 to 1000 nM against JAK1, 100 to 1000 nM against JAK2 and 1000 to 10000 nM on JAK3.

Consider `CCC(CC)n1cc(-c2nc(-c3cnn(C4CN(C(=O)CN)C4)c3)cn3nccc23)cn1` [Example 186, 2-amino-1-(3-(4-(4-(1-(pentan-3-yl)-1H-pyrazol-4-yl)pyrazolo[1,5-a]pyrazin-6-yl)-1H-pyrazol-1-yl)azetidin-1-yl)ethanone], for which the IC50 lay within 10 to 100 nM against Human Tyk2 kinase domain, 1000 to 10000 nM on JAK1, 10 to 100 nM against JAK2 and 1000 to 10000 nM at JAK3.

With `CCC(CC)n1cc(-c2nc(-c3cnn(C4CN(C(=O)CNC)C4)c3)cn3nccc23)cn1` [Example 187, 2-(methylamino)-1-(3-(4-(4-(1-(pentan-3-yl)-1H-pyrazol-4-yl)pyrazolo[1,5-a]pyrazin-6-yl)-1H-pyrazol-1-yl)azetidin-1-yl)ethanone bis(2,2,2-trifluoroacetate)], the IC50 against Human Tyk2 kinase domain fell in the range of 10 to 100 nM; against JAK1, 100 to 1000 nM; against JAK2, 10 to 100 nM; against JAK3 it was 1000 to 10000 nM.

`CCC(CC)n1cc(-c2nc(-c3cnn([C@@H]4CCNC[C@H]4O)c3)cn3nccc23)cn1` [Example 188, (3R,4R)-4-(4-(4-(1-(pentan-3-yl)-1H-pyrazol-4-yl)pyrazolo[1,5-a]pyrazin-6-yl)-1H-pyrazol-1-yl)piperidin-3-ol]: the IC50 against Human Tyk2 kinase domain was in the range of 10 to 100 nM; against JAK1, 1000 to 10000 nM; at JAK2, 10 to 100 nM; at JAK3, 1000 to 10000 nM.

As to `CCC(CC)n1cc(-c2nc(-c3cnn([C@@H]4CCC[C@@H]4O)c3)cn3nccc23)cn1` [Example 189, (1S,2R)-2-(4-(4-(1-(pentan-3-yl)-1H-pyrazol-4-yl)pyrazolo[1,5-a]pyrazin-6-yl)-1H-pyrazol-1-yl)cyclopentanol], the IC50 lay within 10 to 100 nM against Human Tyk2 kinase domain, 1000 to 10000 nM on JAK1 (setting [1]), 10 to 100 nM against JAK2 and 1000 to 10000 nM at JAK3.

`CCC(CC)n1cc(-c2nc(-c3cnn(CC(C)(C)CO)c3)cn3nccc23)cn1` [Example 191, 2,2-dimethyl-3-(4-(4-(1-(pentan-3-yl)-1H-pyrazol-4-yl)pyrazolo[1,5-a]pyrazin-6-yl)-1H-pyrazol-1-yl)propan-1-ol]: the IC50 on Human Tyk2 kinase domain lay within 10 to 100 nM; on JAK1 (setting [1]), 10 to 100 nM; at JAK2 it was 10 to 100 nM; against JAK3 it was 1000 to 10000 nM.

Consider `CCC(CC)n1cc(-c2nc(-c3cnn(CC4(CO)CC4)c3)cn3nccc23)cn1` [Example 192, (1-((4-(4-(1-(pentan-3-yl)-1H-pyrazol-4-yl)pyrazolo[1,5-a]pyrazin-6-yl)-1H-pyrazol-1-yl)methyl)cyclopropyl)methanol], for which the IC50 on Human Tyk2 kinase domain was 10 to 100 nM; against JAK1 (setting [1]) it was 10 to 100 nM; against JAK2, 10 to 100 nM; against JAK3, 1000 to 10000 nM.

Turning to `CCC(n1cc(-c2nc(-c3cnn(C[C@@H](O)CO)c3)cn3nccc23)cn1)C(F)(F)F` (stereo partly drawn) [Example 193, (2R)-3-(4-(4-(1-(1,1,1-trifluorobutan-2-yl)-1H-pyrazol-4-yl)pyrazol[1,5-a]pyrazin-6-yl)-1H-pyrazol-1-yl)propane-1,2-diol], the IC50 against Human Tyk2 kinase domain lay in the range of 100 to 1000 nM; against JAK1 (setting [1]), 1000 to 10000 nM; against JAK2, 100 to 1000 nM; at JAK3 it was 1000 to 10000 nM.

As for `C[C@H](CC(F)(F)F)n1cc(-c2nc(-c3cnn(C[C@@H](O)CO)c3)cn3nccc23)cn1` [Example 194, (R)-3-(4-(4-(1-((R)-4,4,4-trifluorobutan-2-yl)-1H-pyrazol-4-yl)pyrazolo[1,5-a]pyrazin-6-yl)-1H-pyrazol-1-yl)propane-1,2-diol hydrochloride], the IC50 is 100 to 1000 nM at Human Tyk2 kinase domain, 1000 to 10000 nM at JAK1 (setting [1]), 100 to 1000 nM at JAK2 and 1000 to 10000 nM against JAK3.

For the compound `C[C@@H](CC(F)(F)F)n1cc(-c2nc(-c3cnn(C[C@@H](O)CO)c3)cn3nccc23)cn1` [Example 195, (R)-3-(4-(4-(1-((S)-4,4,4-trifluorobutan-2-yl)-1H-pyrazol-4-yl)pyrazolo[1,5-a]pyrazin-6-yl)-1H-pyrazol-1-yl)propane-1,2-diol hydrochloride], the IC50 against Human Tyk2 kinase domain lay within 100 to 1000 nM; at JAK1 (setting [1]), 1000 to 10000 nM; on JAK2, 100 to 1000 nM; against JAK3, 1000 to 10000 nM.

As for `CC[C@H](n1cc(-c2nc(-c3cnn(C[C@@H](O)CO)c3)cn3nccc23)cn1)C(C)(F)F` [Example 198, (R)-3-(4-(4-(1-((S)-2,2-difluoropentan-3-yl)-1H-pyrazol-4-yl)pyrazolo[1,5-a]pyrazin-6-yl)-1H-pyrazol-1-yl)propane-1,2-diol], the IC50 against Human Tyk2 kinase domain was in the range of 100 to 1000 nM; against JAK1 (setting [1]), 1000 to 10000 nM; against JAK2, 100 to 1000 nM; against JAK3, 1000 to 10000 nM.

In the case of `CC[C@@H](CC1CC1)n1cc(-c2nc(-c3cnn(C[C@@H](O)CO)c3)cn3nccc23)cn1` [Example 205, (R)-3-(4-(4-(1-((S)-1-cyclopropylbutan-2-yl)-1H-pyrazol-4-yl)pyrazolo[1,5-a]pyrazin-6-yl)-1H-pyrazol-1-yl)propane-1,2-diol], the 50% inhibitory concentration (IC50) against Human Tyk2 kinase domain lay in the range of 10 to 100 nM; against JAK1 (setting [1]), 100 to 1000 nM; on JAK2, 10 to 100 nM; on JAK3, 1000 to 10000 nM.

For the compound `CC[C@H](CC(F)(F)F)n1cc(-c2nc(-c3cnn(C(CO)CO)c3)cn3nccc23)cn1` [Example 211, (R)-2-(4-(4-(1-(1,1,1-trifluoropentan-3-yl)-1H-pyrazol-4-yl)pyrazolo[1,5-a]pyrazin-6-yl)-1H-pyrazol-1-yl)propane-1,3-diol], the IC50 lay in the range of 10 to 100 nM against Human Tyk2 kinase domain, 100 to 1000 nM against JAK1, 10 to 100 nM against JAK2 and 1000 to 10000 nM against JAK3.

Consider `CC[C@H](C1CC1)n1cc(-c2nc(-c3cnn(C(CO)CO)c3)cn3nccc23)cn1` [Example 215, (R)-2-(4-(4-(1-(1-cyclopropylpropyl)-1H-pyrazol-4-yl)pyrazolo[1,5-a]pyrazin-6-yl)-1H-pyrazol-1-yl)propane-1,3-diol], for which the IC50 was in the range of 10 to 100 nM on Human Tyk2 kinase domain, 100 to 1000 nM against JAK1 (setting [1]), 10 to 100 nM against JAK2 and 1000 to 10000 nM against JAK3.

With `OC[C@H](O)Cn1cc(-c2cn3nccc3c(-c3cnn(C(C4CC4)C4CC4)c3)n2)cn1` [Example 216, (R)-3-(4-(4-(1-(dicyclopropylmethyl)-1H-pyrazol-4-yl)pyrazolo[1,5-a]pyrazin-6-yl)-1H-pyrazol-1-yl)propane-1,2-diol], the half-maximal inhibitory concentration (IC50) on Human Tyk2 kinase domain was in the range of 100 to 1000 nM; at JAK1, 1000 to 10000 nM; at JAK2, 100 to 1000 nM; against JAK3 it was 1000 to 10000 nM.

For the compound `C[C@@H]1CC[C@@H]1n1cc(-c2nc(-c3cnn(C[C@@H](O)CO)c3)cn3nccc23)cn1` [Example 217, (R)-3-(4-(4-(1-(cis-2-methylcyclobutyl)-1H-pyrazol-4-yl)pyrazolo[1,5-a]pyrazin-6-yl)-1H-pyrazol-1-yl)propane-1,2-diol], the IC50 was in the range of 100 to 1000 nM at Human Tyk2 kinase domain, 1000 to 10000 nM on JAK1 (setting [1]), 100 to 1000 nM against JAK2 and 1000 to 10000 nM on JAK3.

As to `CC[C@H](C1CC1)n1cc(-c2nc(-c3cnn(C[C@H](C)O)c3)cn3nccc23)cn1` [Example 218, (S)-1-(4-(4-(1-((R)-1-cyclopropylpropyl)-1H-pyrazol-4-yl)pyrazolo[1,5-a]pyrazin-6-yl)-1H-pyrazol-1-yl)propan-2-ol], the IC50 on Human Tyk2 kinase domain lay in the range of 10 to 100 nM; against JAK1, 100 to 1000 nM; at JAK2, 10 to 100 nM; on JAK3, 1000 to 10000 nM.

On to `CCC(CC)n1cc(-c2nc(-c3cnn(C[C@H]4CNCCO4)c3)cn3nccc23)cn1` [compound 128, (R)-2-((4-(4-(1-(pentan-3-yl)-1H-pyrazol-4-yl)pyrazolo[1,5-a]pyrazin-6-yl)-1H-pyrazol-1-yl)methyl)morpholine], for which the IC50 against Human Tyk2 kinase domain fell in the range of 100 to 1000 nM; on JAK1 it was 1000 to 10000 nM; against JAK2, 100 to 1000 nM; against JAK3, 1000 to 10000 nM.
